Reference: PubChem BioAssay (NCI)
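Grown in 96-well plates, cells were treated for 48 hours with each compound at five concentrations. Insufficient inhibition: endpoint recorded as highest concentration tested. Abbreviation: GI50, concentration required for 50% inhibition of growth. TGI marks complete inhibition of growth.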

Columns and labels:
Test in all cases: NCI-60 cell line screen, 48 h
A549 NSCLC = test system: A549 NSCLC
EKVX NSCLC = test system: EKVX NSCLC
HT29 colon = test system: HT29 colon
NCI-H23 lung = test system: NCI-H23 lung
SF-295 CNS = test system: SF-295 CNS
SK-MEL-2 melanoma = test system: SK-MEL-2 melanoma
T-47D breast = test system: T-47D breast
TK-10 renal = test system: TK-10 renal
UACC-257 melanoma = test system: UACC-257 melanoma
UACC-62 melanoma = test system: UACC-62 melanoma

Compound O=C(CCl)c1ccc([N+](=O)[O-])o1 has a GI50 (A549 NSCLC) of 21.1 µM, a TGI (A549 NSCLC) of 54.4 µM and a GI50 (EKVX NSCLC) of 10.7 µM. For the same compound, the TGI (EKVX NSCLC) was 32.6 µM, the GI50 (HT29 colon) was 2.76 µM and the TGI (HT29 colon) was 8.99 µM. It also gave a GI50 (NCI-H23 lung) of 4.94 µM, a TGI (NCI-H23 lung) of 26 µM and a GI50 (SF-295 CNS) of 5.26 µM. It also gave a TGI (SF-295 CNS) of 17.4 µM, a GI50 (SK-MEL-2 melanoma) of 6.81 µM and a TGI (SK-MEL-2 melanoma) of 27.4 µM. It also gave a GI50 (T-47D breast) of 1.89 µM, a TGI (T-47D breast) of 4.78 µM and a GI50 (TK-10 renal) of 1.79 µM. For the same compound, the TGI (TK-10 renal) was 3.49 µM, the GI50 (UACC-257 melanoma) was 1.83 µM and the TGI (UACC-257 melanoma) was 3.93 µM. It also gave a GI50 (UACC-62 melanoma) of 2.13 µM and a TGI (UACC-62 melanoma) of 5.62 µM.

For CCc1c(C)[nH]c(/C=C2\N=C(c3ccc[nH]3)C=C2OC)c1C, the GI50 (A549 NSCLC) was 0.498 µM, the TGI (A549 NSCLC) was 10.5 µM and the GI50 (EKVX NSCLC) was 0.707 µM. For the same compound, the TGI (EKVX NSCLC) was 9.93 µM, the GI50 (HT29 colon) was < 0.0376 µM and the TGI (HT29 colon) was 2.29 µM. For the same compound, the GI50 (NCI-H23 lung) was 1.1 µM, the TGI (NCI-H23 lung) was 11.3 µM and the GI50 (SF-295 CNS) was 0.747 µM. For the same compound, the TGI (SF-295 CNS) was 3.03 µM, the GI50 (SK-MEL-2 melanoma) was 0.234 µM and the TGI (SK-MEL-2 melanoma) was 0.989 µM. For the same compound, the GI50 (T-47D breast) was 0.545 µM, the TGI (T-47D breast) was 3.22 µM and the GI50 (TK-10 renal) was 0.276 µM. For the same compound, the TGI (TK-10 renal) was 8.85 µM, the GI50 (UACC-257 melanoma) was 0.432 µM and the TGI (UACC-257 melanoma) was 2.65 µM. The GI50 (UACC-62 melanoma) was 0.341 µM and the TGI (UACC-62 melanoma) was 1.59 µM.

In the case of O=C(O)CSSCC(=O)O, the TGI (A549 NSCLC) is reported as > 100 µM, the TGI (EKVX NSCLC) is reported as > 100 µM and the TGI (HT29 colon) is reported as > 100 µM. The TGI (NCI-H23 lung) was > 100 µM, the TGI (SF-295 CNS) was > 100 µM and the TGI (SK-MEL-2 melanoma) was > 100 µM. The TGI (T-47D breast) was > 100 µM, the TGI (TK-10 renal) was > 100 µM and the TGI (UACC-257 melanoma) was > 100 µM. The TGI (UACC-62 melanoma) was > 100 µM.

In the case of CN(C)CCCNC(=O)c1cc(NC(=O)CCNS(=O)(=O)c2ccc3c(c2)C(=O)c2ccccc2C3=O)cn1C, the GI50 (A549 NSCLC) is reported as > 100 µM, the TGI (A549 NSCLC) is reported as > 100 µM and the GI50 (EKVX NSCLC) is reported as > 100 µM. The TGI (EKVX NSCLC) was > 100 µM, the GI50 (HT29 colon) was > 100 µM and the TGI (HT29 colon) was > 100 µM. The GI50 (NCI-H23 lung) was > 100 µM, the TGI (NCI-H23 lung) was > 100 µM and the GI50 (SF-295 CNS) was > 100 µM. The TGI (SF-295 CNS) was > 100 µM, the GI50 (SK-MEL-2 melanoma) was > 100 µM and the TGI (SK-MEL-2 melanoma) was > 100 µM. The GI50 (T-47D breast) was > 100 µM, the TGI (T-47D breast) was > 100 µM and the GI50 (TK-10 renal) was > 100 µM. The TGI (TK-10 renal) was > 100 µM, the GI50 (UACC-257 melanoma) was 54.4 µM and the TGI (UACC-257 melanoma) was > 100 µM. The GI50 (UACC-62 melanoma) was > 100 µM and the TGI (UACC-62 melanoma) was > 100 µM.

With CC12CCC=CC1CCC1C2CCC2(C)C(c3ccc(=O)oc3)CCC12O (stereo not given) the GI50 (A549 NSCLC) was 0.0295 µM, the TGI (A549 NSCLC) was 0.111 µM and the GI50 (EKVX NSCLC) was 0.0636 µM. For the same compound, the TGI (EKVX NSCLC) was 0.193 µM, the GI50 (HT29 colon) was 0.0516 µM and the TGI (HT29 colon) was 0.801 µM. The GI50 (NCI-H23 lung) was 0.0492 µM, the TGI (NCI-H23 lung) was 0.302 µM and the GI50 (SF-295 CNS) was 0.044 µM. The TGI (SF-295 CNS) was 0.248 µM, the GI50 (SK-MEL-2 melanoma) was 0.25 µM and the TGI (SK-MEL-2 melanoma) was 0.828 µM. The GI50 (T-47D breast) was 0.181 µM, the TGI (T-47D breast) was 1.05 µM and the GI50 (TK-10 renal) was 0.0479 µM. For the same compound, the TGI (TK-10 renal) was 0.499 µM, the GI50 (UACC-257 melanoma) was 0.255 µM and the TGI (UACC-257 melanoma) was 0.994 µM. The GI50 (UACC-62 melanoma) was 0.221 µM and the TGI (UACC-62 melanoma) was 0.723 µM.

O=C(O)[C@@H]1C2CC([C@@H]1C(=O)O)[C@H](N1C(=O)CCC1=O)[C@@H]2Br (stereo not given in full) was tested, and the TGI (A549 NSCLC) was > 100 µM, the TGI (EKVX NSCLC) was > 100 µM and the TGI (HT29 colon) was > 100 µM. The TGI (NCI-H23 lung) was > 100 µM, the TGI (SF-295 CNS) was > 100 µM and the TGI (SK-MEL-2 melanoma) was > 100 µM. For the same compound, the TGI (T-47D breast) was > 100 µM, the TGI (TK-10 renal) was > 100 µM and the TGI (UACC-257 melanoma) was > 100 µM. For the same compound, the TGI (UACC-62 melanoma) was > 100 µM.

CCN(CC)c1ccc(/C=C/c2cc(C)c3ccccc3n2)cc1 was tested, and the GI50 (A549 NSCLC) was 3.99 µM, the TGI (A549 NSCLC) was > 100 µM and the GI50 (EKVX NSCLC) was 4.95 µM. It also gave a TGI (EKVX NSCLC) of 44.9 µM, a GI50 (HT29 colon) of 2.41 µM and a TGI (HT29 colon) of 7.39 µM. It also gave a GI50 (NCI-H23 lung) of 3.43 µM, a TGI (NCI-H23 lung) of 39.3 µM and a GI50 (SF-295 CNS) of 1.8 µM. For the same compound, the TGI (SF-295 CNS) was 5.72 µM, the GI50 (SK-MEL-2 melanoma) was 2.61 µM and the TGI (SK-MEL-2 melanoma) was 6.78 µM. The GI50 (T-47D breast) was 4.46 µM, the TGI (T-47D breast) was > 100 µM and the GI50 (TK-10 renal) was 4.47 µM. It also gave a TGI (TK-10 renal) of 13.8 µM, a GI50 (UACC-257 melanoma) of 5.18 µM and a TGI (UACC-257 melanoma) of 42.8 µM. It also gave a GI50 (UACC-62 melanoma) of 3.31 µM and a TGI (UACC-62 melanoma) of 22.6 µM.
